From patent US20230364057A1, “BACTERIAL DNA GYRASE INHIBITORS AND METHODS OF USE THEREOF” (THE FLORIDA INTERNATIONAL UNIVERSITY BOARD OF TRUSTEES, priority 2022, published 2023)

Columns and labels:
E. coli DNA gyrase [1] = molecular target: T1, E. coli DNA gyrase (Escherichia coli (strain K12), UniProt P0AES4+P0AES6); assay: Agarose gel-based DNA gyrase inhibition assay; format: biochemical
Procedure: 100 ng of DNA gyrase was used to supercoil the rx pAB1 in the presence of different concentrations of a gyrase inhibitor. […] Samples were analyzed by electrophoresis in 1% w/v agarose gels followed by ethidium bromide staining and photographed under UV light.

E. coli DNA gyrase [2] = molecular target: T1, E. coli DNA gyrase; assay: biochemical; format: biochemical
[3] = IC50 (50-200 µM), bin of Table 2

| SMILES | inhibition of E. coli DNA gyrase activities (E. coli DNA gyrase [1]; 200 µM of compounds) | inhibition of E. coli DNA gyrase activities (E. coli DNA gyrase [1]; 50 µM of compounds) | further results |
| --- | --- | --- | --- |
| CCOC(=O)C1=C(Nc2ccc(C)cc2)S/C(=C\c2ccc(-c3ccccc3C(=O)O)o2)C1=O [Compound 60] | completely inhibited | – | IC50 (E. coli DNA gyrase [2]; [3]): 50 to 200 µM |
| N#CC(=Cc1ccc(C(=O)O)cc1)c1nc2sc3c(c2c(=O)[nH]1)CCCC3 [Compound 12] | completely inhibited | completely inhibited | IC50 (E. coli DNA gyrase [2]; IC50 ([…]-50 µM), bin of Table 2): 25 to 50 µM |
| O=C1/C(=C/c2ccc(O)cc2)SC(=S)N1CC1CCCO1 (stereo not drawn) [Compound 61] | almost completely inhibited | – | IC50 (E. coli DNA gyrase [2]; [3]): 50 to 200 µM |
| O=C(/C=C/c1ccc(O)c(O)c1)O[C@@H]1CC(O)(C(=O)O)C[C@@H](OC(=O)/C=C/c2ccc(O)c(O)c2)C1O (stereo partly drawn) [3,5-dicaffeoylquinic acid, reference compound] | – | – | inhibition of E. coli DNA gyrase activities (E. coli DNA gyrase [2]): strongly inhibit |
| O=C1c2ccccc2C(=O)c2cc(N3CCCCC3)ccc21 [Compound 206] | potently inhibited | – | IC50 (E. coli DNA gyrase [2]; [3]): 50 to 200 µM |
| O=C(O)c1cc(O)c2c(c1)C(=O)c1cccc(O)c1C2=O [rhein] | – | – | inhibition of E. coli DNA gyrase activities (E. coli DNA gyrase [2]): potently inhibited |
| Cc1cc2c3c(c1)C1CC=CC1C(C(=O)O)N3CC1CC=CC21 (stereo not drawn) [Compound 106] | – | potently inhibited | inhibition of E. coli DNA gyrase activities (E. coli DNA gyrase [2]): inhibit E. coli DNA gyrase strongly; IC50 (E. coli DNA gyrase [2]; [3]): 50 to 200 µM |
| Nc1ccc2cc3ccc(N)cc3nc2c1 [Compound 246] | completely inhibited | – | – |
| CCOC(=O)[C@@H]1Nc2ccc(C(=O)O)cc2[C@@H]2C=CC[C@H]12 [Compound 141] | – | potently inhibited | inhibition of E. coli DNA gyrase activities (E. coli DNA gyrase [2]): inhibit E. coli DNA gyrase strongly |
| COc1ccc(C2=NN(c3nc(-c4ccccc4)c(CC(=O)O)s3)C(c3ccco3)C2)cc1 (stereo not drawn) [Compound 10] | completely inhibited | – | IC50 (E. coli DNA gyrase [2]; [3]): 50 to 200 µM |
| Cc1cc(/C=C(/C#N)c2nc3ccccc3[nH]2)c(C)n1-c1cc(C(=O)O)cc(C(=O)O)c1 [Compound 63] | completely inhibited | – | IC50 (E. coli DNA gyrase [2]; [3]): 50 to 200 µM |
| N#C/C(=C\c1coc2ccc(O)cc2c1=O)C(=O)/N=c1\[nH]c2ccccc2s1 [Compound 165] | – | completely inhibited | – |
| CN1/C(=C/c2cc[n+](C)c3ccccc23)Sc2ccccc21.Cc1ccc(S(=O)(=O)[O-])cc1 [Compound 248] | completely inhibited | – | – |
| COc1ccc2c(c1)/c(=C\c1ccc(N(C)C)cc1)c1cc(-c3ccccc3)[n+](C)n12.O=S(=O)([O-])C(F)(F)F [Compound 237] | completely inhibited | – | – |
| Brc1ccc2c(c1)-c1ccccc1C1=NCCN12 [Compound 217] | completely inhibited | – | – |
| CCOc1ccc2nc3cc(N)ccc3c(N)c2c1 [Compound 257] | completely inhibited | – | – |
| O=c1oc2c(O)c(O)cc3c(=O)oc4c(O)c(O)cc1c4c23 [ellagic acid, reference compound] | – | – | inhibition of E. coli DNA gyrase activities (E. coli DNA gyrase [2]): strongly inhibit |
| CN(C)CCNC(=O)c1cccc2nc3cccc(F)c3nc12.Cl [Compound 241] | completely inhibited | – | – |
| CC(C)(CS(=O)(=O)[O-])NC(=O)CC[N+](C)(C)CCO [Compound 42] | completely inhibited | completely inhibited | – |
| O=C(O[C@@H]1Cc2c(O)cc(O)cc2O[C@@H]1c1cc(O)c(O)c(O)c1)c1cc(O)c(O)c(O)c1 [EGCG, epigallocatechin gallate, reference compound] | – | – | inhibition of E. coli DNA gyrase activities (E. coli DNA gyrase [2]): strongly inhibit |

| SMILES | inhibition of E. coli DNA gyrase activities (E. coli DNA gyrase [1]; 200 µM of compounds) | inhibition of E. coli DNA gyrase activities (E. coli DNA gyrase [1]; 50 µM of compounds) | further results |
| --- | --- | --- | --- |
| O=C(O)C(c1ccccc1)N1C(=O)/C(=C\c2ccc(-c3cccc(Cl)c3)o2)SC1=S (stereo not drawn) [Compound 176] | – | completely inhibited | – |
| Cc1cc(C)c2c(c1)C(=NNc1ccc(C)c(Cl)c1)C(O)=N2 [Compound 132] | – | completely inhibited | – |
| O=C1/C(=C\c2ccc(O)c([N+](=O)[O-])c2)SC(=S)N1Cc1ccccc1 [Compound 192] | – | completely inhibited | – |
| O=c1ccc2cc3ccoc3cc2o1 [psoralen, reference compound] | – | – | inhibition of E. coli DNA gyrase activities (E. coli DNA gyrase [2]): is not a gyrase inhibitor |
| Cc1cc(C)c2c(c1)C(/N=N/c1cc([N+](=O)[O-])ccc1C)C(O)=N2 (stereo not drawn) [Compound 114] | – | completely inhibited | – |
| Nc1c2ccccc2nc2ccccc12 [Compound 247] | completely inhibited | – | – |
| CSC1SC2C(=O)N(C)C(C(C)C)C(=O)OCC(NC(=O)c3cnc4ccccc4n3)C(=O)NC(C)C(=O)N(C)C1C(=O)N(C)C(C(C)C)C(=O)OCC(NC(=O)c1cnc3ccccc3n1)C(=O)NC(C)C(=O)N2C (stereo not drawn) [Compound 258] | completely inhibited | – | – |
| CN(C)c1ccc2cc3ccc(N(C)C)cc3nc2c1 [Compound 249] | completely inhibited | – | – |
| COc1cccc2nc3c(C(=O)NCCN(C)C)cccc3cc12.Cl [Compound 240] | completely inhibited | – | – |
| CN1C[C@H](CNC(=O)OCc2ccccc2)C[C@@H]2c3cccc4c3c(cn4C)C[C@H]21 [Metergoline, metergoline, reference compound] | – | – | inhibition of E. coli DNA gyrase activities (E. coli DNA gyrase [2]): inhibits gyrase activities at 100 and 200 µM |
| O=C1NC(=S)S/C1=C/c1cc(Cl)cc(Cl)c1O [Compound 207] | completely inhibited | inhibited | – |
| O=C(OC[C@H]1O[C@@H](OC(=O)c2cc(O)c(O)c(OC(=O)c3cc(O)c(O)c(O)c3)c2)[C@H](OC(=O)c2cc(O)c(O)c(OC(=O)c3cc(O)c(O)c(O)c3)c2)[C@@H](OC(=O)c2cc(O)c(O)c(OC(=O)c3cc(O)c(O)c(O)c3)c2)[C@@H]1OC(=O)c1cc(O)c(O)c(OC(=O)c2cc(O)c(O)c(O)c2)c1)c1cc(O)c(O)c(OC(=O)c2cc(O)c(O)c(O)c2)c1 [Tannic acid, tannic acid] | – | – | IC50 (E. coli DNA gyrase [1]; gel-based, read-out: IC50 against E. coli DNA gyrase): 1 µM |
| CN1C(=O)/C(=C\c2ccc(-c3ccccc3)o2)SC1=S [Compound 57] | almost completely inhibited | – | – |
| Cc1c2cc(O)c(=O)cc-2oc2cc(O)c(O)cc12 [methyl fluorone black] | – | – | IC50 (E. coli DNA gyrase [2]; read-out: IC50 against E. coli DNA gyrase): < 10 µM |
| O=C(O)CCN1C(=O)/C(=C/c2ccc(-c3nc4ccccc4s3)o2)SC1=S [Compound 27] | completely inhibited | completely inhibited | – |
| Cc1cccc2c1N=C(O)C2/N=N/c1ccc(S(N)(=O)=O)cc1 (stereo not drawn) [Compound 116] | – | completely inhibited | – |
| O=C(O)CCCN1C(=O)C(=Cc2ccc(-c3nc4ccccc4s3)o2)SC1=S (single isomer, unassigned) [Compound 41] | – | – | IC50 (E. coli DNA gyrase [2]; IC50 (≤15 µM) IC50, Table 2): 1.48 µM |
| CCOC(=O)c1cc2c(=Cc3ccc(N(C)C)cc3)c3ccccc3n2[n+]1C.O=S(=O)([O-])C(F)(F)F [Compound 239] | completely inhibited | – | – |
| CC1=NN(c2nc(N)nc(/C(C#N)=C\c3ccc([N+](=O)[O-])o3)n2)C(C)(C)C1 [Compound 238] | completely inhibited | – | – |
| CN(C)c1ccc(/C=c2\c3ccccc3n3c2cc(-c2ccccc2)[n+]3C)cc1 [Compound 236] | completely inhibited | completely inhibited | – |
